# Measurements as given in ChEMBL document CHEMBL1201862, “PubChem BioAssay data set” (2004).
# Active and inactive are the calls of the source.
# Legend:
# [1] = molecular target: T1, RNA-binding protein pos-1 (Caenorhabditis elegans, UniProt G5EF15); assay: disruptors of C. elegans POS-1 RNA interaction – biochemical, fluorescence polarization, dose response (AID 1964);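 further: purified POS-1 fused to maltose binding protein made in E. coli; potency of compounds blocking POS-1 binding to fluorescent RNA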
# T1 sequence (G5EF15 whole entry): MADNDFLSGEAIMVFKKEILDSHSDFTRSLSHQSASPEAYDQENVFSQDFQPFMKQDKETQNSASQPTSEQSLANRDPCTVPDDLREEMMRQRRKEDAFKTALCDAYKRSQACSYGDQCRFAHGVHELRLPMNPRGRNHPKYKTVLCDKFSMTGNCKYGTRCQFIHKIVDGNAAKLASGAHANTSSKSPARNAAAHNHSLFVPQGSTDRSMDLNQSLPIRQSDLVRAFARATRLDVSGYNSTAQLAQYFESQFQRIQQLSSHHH
# [2] = molecular target: T2, Zinc finger protein mex-5 (Caenorhabditis elegans, UniProt Q9XUB2); assay: potency of MEX-5 RNA-binding blockers – biochemical, C. elegans, fluorescence polarization, dose response (AID 1960)
# T2 sequence (Q9XUB2 whole entry): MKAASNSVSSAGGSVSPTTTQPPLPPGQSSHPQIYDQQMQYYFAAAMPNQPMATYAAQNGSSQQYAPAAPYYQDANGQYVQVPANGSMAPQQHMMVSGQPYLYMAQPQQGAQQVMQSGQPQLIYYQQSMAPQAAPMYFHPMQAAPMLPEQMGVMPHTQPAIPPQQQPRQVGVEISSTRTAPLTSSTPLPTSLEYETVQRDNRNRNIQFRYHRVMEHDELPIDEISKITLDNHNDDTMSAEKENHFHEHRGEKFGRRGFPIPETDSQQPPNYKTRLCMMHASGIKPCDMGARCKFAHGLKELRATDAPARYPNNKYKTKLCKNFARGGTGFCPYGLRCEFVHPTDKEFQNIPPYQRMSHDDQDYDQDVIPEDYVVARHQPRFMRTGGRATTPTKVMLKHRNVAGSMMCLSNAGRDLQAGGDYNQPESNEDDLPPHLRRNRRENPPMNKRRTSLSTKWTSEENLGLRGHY
# [3] = molecular target: T3, Polyadenylate-binding protein 1 (Homo sapiens, UniProt P11940); assay: MLLE binding blockers, Cy5 peptide tracer – biochemical, fluorescence polarization, Cy5-PAM2 peptide, secondary, miRNA deadenylation inhibitor project, dose response (AID 602260); assay type: functional; conditions: read-out: IC50_Mean
# T3 sequence (P11940 whole entry, the tested form may be a part): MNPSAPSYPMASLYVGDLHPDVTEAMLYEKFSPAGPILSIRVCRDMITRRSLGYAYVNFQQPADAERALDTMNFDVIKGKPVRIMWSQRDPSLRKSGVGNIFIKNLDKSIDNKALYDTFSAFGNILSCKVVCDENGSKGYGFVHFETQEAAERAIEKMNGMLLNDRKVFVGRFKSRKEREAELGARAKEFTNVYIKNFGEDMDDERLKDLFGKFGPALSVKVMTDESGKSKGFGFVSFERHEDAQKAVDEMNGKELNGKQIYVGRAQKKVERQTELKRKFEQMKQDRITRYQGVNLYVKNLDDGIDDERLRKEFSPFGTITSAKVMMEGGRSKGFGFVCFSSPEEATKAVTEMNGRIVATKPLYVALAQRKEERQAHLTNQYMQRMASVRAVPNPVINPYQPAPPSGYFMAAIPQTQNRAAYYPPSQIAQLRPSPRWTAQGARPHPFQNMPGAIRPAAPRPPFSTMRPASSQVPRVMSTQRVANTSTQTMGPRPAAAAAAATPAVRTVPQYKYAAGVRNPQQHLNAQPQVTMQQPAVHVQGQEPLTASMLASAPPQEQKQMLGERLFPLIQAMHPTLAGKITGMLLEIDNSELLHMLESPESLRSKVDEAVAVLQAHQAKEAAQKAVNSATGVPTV
# [4] = molecular target: T3, Polyadenylate-binding protein 1; assay: MLLE domain peptide-binding blockers, IC50 – biochemical, fluorescence polarization, FITC-PAM2 peptide, dose response (AID 602259); assay type: functional; conditions: read-out: IC50_Mean
# [5] = molecular target: T4, Rac GTPase-activating protein 1 (Homo sapiens, UniProt Q9H0H5); assay: blockers of MgcRacGAP-driven Rac1 GTP hydrolysis – biochemical, ADP Hunter fluorescence, primary and confirmatory, confirmation (AID 624330); assay type: functional
# T4 sequence (Q9H0H5 whole entry): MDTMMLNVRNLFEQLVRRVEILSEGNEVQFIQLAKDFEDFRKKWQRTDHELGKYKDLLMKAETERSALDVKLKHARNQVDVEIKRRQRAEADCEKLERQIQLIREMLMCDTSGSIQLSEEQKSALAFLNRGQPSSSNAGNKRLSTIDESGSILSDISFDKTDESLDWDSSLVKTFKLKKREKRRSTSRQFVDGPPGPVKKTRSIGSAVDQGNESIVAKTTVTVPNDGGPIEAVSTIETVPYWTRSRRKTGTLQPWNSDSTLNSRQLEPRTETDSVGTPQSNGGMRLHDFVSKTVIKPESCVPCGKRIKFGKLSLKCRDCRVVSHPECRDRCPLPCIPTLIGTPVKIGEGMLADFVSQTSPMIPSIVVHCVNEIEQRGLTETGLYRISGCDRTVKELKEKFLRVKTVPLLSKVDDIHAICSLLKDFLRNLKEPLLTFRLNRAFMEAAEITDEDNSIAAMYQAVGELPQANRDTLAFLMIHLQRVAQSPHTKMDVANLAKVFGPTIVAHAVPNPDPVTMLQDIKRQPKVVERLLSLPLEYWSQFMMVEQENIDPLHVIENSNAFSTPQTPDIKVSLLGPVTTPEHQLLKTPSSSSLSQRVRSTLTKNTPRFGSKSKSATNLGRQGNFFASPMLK
# [6] = molecular target: T5, Heat shock factor protein 1 (Mus musculus, UniProt P38532); assay: enhancement of HSF1-driven luciferase signal – cell-based, NIH3T3, luminescence, dose retest, confirmation (AID 435004); assay type: functional;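 further: stress induced by proteasome inhibitor MG132 added 30 min after compound; luciferase reporter driven by HSF1 response element in NIH3T3 cells; actives raise luminescence as potentiators of the MG132 stress response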
# T5 sequence (P38532 whole entry): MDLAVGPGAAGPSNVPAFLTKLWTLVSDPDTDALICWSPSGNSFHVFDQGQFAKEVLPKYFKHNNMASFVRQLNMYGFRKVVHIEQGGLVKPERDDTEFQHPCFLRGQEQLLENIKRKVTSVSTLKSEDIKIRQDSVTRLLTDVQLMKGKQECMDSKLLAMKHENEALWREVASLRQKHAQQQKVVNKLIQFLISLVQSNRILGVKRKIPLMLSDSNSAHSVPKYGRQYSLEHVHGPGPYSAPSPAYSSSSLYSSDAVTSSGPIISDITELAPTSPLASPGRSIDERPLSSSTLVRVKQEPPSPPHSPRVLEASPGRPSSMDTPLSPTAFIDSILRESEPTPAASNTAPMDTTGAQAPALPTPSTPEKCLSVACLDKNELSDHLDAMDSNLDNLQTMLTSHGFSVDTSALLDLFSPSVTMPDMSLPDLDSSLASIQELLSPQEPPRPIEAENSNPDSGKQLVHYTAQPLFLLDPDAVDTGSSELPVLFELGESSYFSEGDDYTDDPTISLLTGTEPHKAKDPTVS
# [7] = luciferase reporter signal suppression in cells – H4 neuroglioma cells, luminescence, dose response (AID 1990); assay type: functional, cell-based
# [8] = Luminescence Cell-Based Dose Response HTS to Identify Inhibitors of 5'UTR Stem-Loop Driven Prion Protein mRNA Translation in H4 Neuroglioblastoma Cells. [Related pubchem assays: 1827 (Project Summary), 1813 (Primary HTS)]; assay type: functional
# [9] = alpha-synuclein stem-loop luciferase translation blockers – H4 neuroglioma cells, luminescence, confirmation (AID 1988); assay type: functional, cell-based
# [10] = molecular target: T6, Ubiquitin-conjugating enzyme E2 N (Homo sapiens, UniProt P61088); assay type: functional;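 further: Dose-response confirmation in a TR-FRET assay detecting UBC13-driven polyubiquitin chain formation, inhibition measured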
# T6 sequence (P61088 whole entry): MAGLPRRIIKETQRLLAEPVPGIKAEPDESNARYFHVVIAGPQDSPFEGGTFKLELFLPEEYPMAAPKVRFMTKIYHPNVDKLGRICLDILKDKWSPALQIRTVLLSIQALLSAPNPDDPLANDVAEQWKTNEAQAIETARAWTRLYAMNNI
# Protein skinhead-1 = molecular target: T7, Protein skinhead-1 (Caenorhabditis elegans, UniProt P34707); assay type: functional
# T7 sequence (P34707 whole entry): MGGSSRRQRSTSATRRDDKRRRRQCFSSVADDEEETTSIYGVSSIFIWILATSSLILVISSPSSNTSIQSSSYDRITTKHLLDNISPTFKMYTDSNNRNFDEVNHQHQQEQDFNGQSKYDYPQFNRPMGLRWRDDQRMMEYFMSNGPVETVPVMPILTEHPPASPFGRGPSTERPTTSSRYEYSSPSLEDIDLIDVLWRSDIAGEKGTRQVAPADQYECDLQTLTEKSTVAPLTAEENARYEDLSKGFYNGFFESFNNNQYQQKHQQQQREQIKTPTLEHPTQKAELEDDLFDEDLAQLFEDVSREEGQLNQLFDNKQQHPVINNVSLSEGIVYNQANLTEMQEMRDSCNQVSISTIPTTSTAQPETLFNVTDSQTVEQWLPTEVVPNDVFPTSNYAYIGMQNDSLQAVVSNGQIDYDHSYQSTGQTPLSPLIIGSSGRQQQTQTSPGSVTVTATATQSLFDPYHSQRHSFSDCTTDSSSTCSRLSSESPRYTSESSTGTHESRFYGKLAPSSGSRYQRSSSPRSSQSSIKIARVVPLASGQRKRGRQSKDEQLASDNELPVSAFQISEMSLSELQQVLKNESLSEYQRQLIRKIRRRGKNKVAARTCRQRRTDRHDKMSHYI
# Cytochrome P450 3A4 = Cytochrome P450 3A4 (Homo sapiens, UniProt P08684);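 further: CYP3A4 tested as one member of a cytochrome P450 panel screen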
# Sequence of Cytochrome P450 3A4 (P08684 whole entry): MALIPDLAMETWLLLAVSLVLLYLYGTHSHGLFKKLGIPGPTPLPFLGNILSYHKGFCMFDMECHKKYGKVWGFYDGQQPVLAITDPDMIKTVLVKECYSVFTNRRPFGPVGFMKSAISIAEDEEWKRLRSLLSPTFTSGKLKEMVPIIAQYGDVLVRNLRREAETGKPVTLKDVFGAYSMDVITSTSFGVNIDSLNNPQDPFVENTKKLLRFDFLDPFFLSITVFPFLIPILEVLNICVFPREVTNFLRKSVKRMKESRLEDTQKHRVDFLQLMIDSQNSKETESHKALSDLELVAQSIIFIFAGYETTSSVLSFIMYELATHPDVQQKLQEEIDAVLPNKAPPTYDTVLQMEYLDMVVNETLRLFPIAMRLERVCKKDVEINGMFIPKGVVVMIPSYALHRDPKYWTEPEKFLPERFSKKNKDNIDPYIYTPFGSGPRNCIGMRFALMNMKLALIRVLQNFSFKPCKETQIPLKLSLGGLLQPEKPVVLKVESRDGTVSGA
# Cytochrome P450 2C9 = Cytochrome P450 2C9 (Homo sapiens, UniProt P11712)
# Sequence of Cytochrome P450 2C9 (P11712 whole entry): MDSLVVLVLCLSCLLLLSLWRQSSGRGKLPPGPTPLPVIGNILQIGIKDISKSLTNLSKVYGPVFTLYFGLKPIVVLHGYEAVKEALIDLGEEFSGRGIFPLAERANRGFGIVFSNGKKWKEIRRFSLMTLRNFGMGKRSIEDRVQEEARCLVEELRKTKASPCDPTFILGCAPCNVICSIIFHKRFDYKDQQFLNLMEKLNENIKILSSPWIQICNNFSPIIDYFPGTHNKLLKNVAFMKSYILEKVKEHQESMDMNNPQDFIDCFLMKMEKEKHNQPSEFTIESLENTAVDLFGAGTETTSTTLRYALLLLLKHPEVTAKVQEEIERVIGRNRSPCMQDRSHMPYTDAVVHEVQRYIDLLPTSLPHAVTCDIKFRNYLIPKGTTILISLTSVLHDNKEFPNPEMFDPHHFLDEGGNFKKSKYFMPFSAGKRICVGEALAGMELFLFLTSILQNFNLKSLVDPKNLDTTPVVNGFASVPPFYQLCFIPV
# [11] = molecular target: T5, Heat shock factor protein 1; assay: decrease of HSF1-responsive luciferase luminescence – cell-based, NIH3T3, dose retest, confirmation (AID 2382); assay type: functional;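 further: NIH3T3 fibroblasts with HSF1-driven luciferase reporter stressed by proteasome inhibitor MG132; luminescence from HSF1-driven luciferase expression after 8 hours of MG132 stress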
# [12] = molecular target: FAD-linked sulfhydryl oxidase ALR (Homo sapiens, UniProt P55789); assay: ALR-catalysed DTT oxidation blockers – biochemical, H2O2 detection, luminescence, cherry-pick, dose response (AID 493248)
# Sequence of FAD-linked sulfhydryl oxidase ALR (P55789 whole entry): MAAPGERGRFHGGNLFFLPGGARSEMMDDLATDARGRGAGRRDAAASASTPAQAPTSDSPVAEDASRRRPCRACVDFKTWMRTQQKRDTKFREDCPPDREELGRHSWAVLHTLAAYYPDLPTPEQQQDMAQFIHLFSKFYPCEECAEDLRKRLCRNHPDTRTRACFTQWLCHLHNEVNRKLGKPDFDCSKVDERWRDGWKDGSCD
# [13] = microbe, parasite or virus in culture; assay type: functional; conditions: Mycobacterium tuberculosis
structure (smiles),measurement,setting,value
CCOC(=O)c1c(N/C=C2/C(=O)NC(=O)N(c3cccc(C)c3)C2=O)sc2c1CCCC2,EC50,[1],> 300 µM (not active)
same,EC50,[2],> 300 µM (not active)
NC(=S)N=Nc1c(O)[nH]c2c(Cl)cc(Cl)cc12,IC50,[3],> 66 µM (inactive)
same,IC50,[4],> 66 µM (inactive)
c1ccc(-c2ccccc2OCCOCCN2CCOCC2)cc1,IC50,[5],58.9 µM (active)
CCOC(=O)c1cnc2nc(C)ccc2c1O,EC50,[1],13.7 µM (inconclusive)
same,EC50,[2],11.8 µM (active)
Cc1cccn2c(=O)c3cc(C(=O)N(C)C)n(C)c3nc12,IC50,[3],> 66 µM (inactive)
same,IC50,[4],39.3 µM (inactive)
CCC(Sc1nc2nnc(C)c-2c(N)n1-c1ccc(C)c(Cl)c1)C(=O)N1CCOCC1 (centres undefined),EC50,[6],> 260 µM (inactive)
CC1CCN(c2ccccc2NC(=S)NC(=O)C(C)(C)C)CC1,EC50,[7],16 µM (active)
same,EC50,[8],> 120 µM (not active)
same,EC50,[9],> 120 µM (not active)
same,IC50,[3],> 66 µM (inactive)
same,IC50,[4],> 66 µM (inactive)
Cc1c(C(=O)NCc2ccc3c(c2)cc(C)n3C)cccc1[N+](=O)[O-],IC50,[3],> 66 µM (inactive)
same,IC50,[4],> 66 µM (inactive)
COc1ccc(C)cc1-n1c(=O)c2ccccc2c2ccccc2c1=O,EC50,[6],11.7 µM (active)
CCOc1cc(/C=N/n2c(C)nnc2C)ccc1O,IC50,[5],103 µM (active)
CCOC(=O)C1=C(c2ccccc2)NC(=O)NC1c1cc(Br)c(O)c(OC)c1 (centres undefined),EC50,[6],> 260 µM (inactive)
COc1cccc(-c2nc(CSCC(=O)NCC3CCCO3)c(C)o2)c1 (centres undefined),IC50,[3],> 66 µM (inactive)
same,IC50,[4],> 66 µM (inactive)
Cc1ccccc1C(=O)OC1OC(O)=C(Cl)/C1=N\c1ccccc1 (centres undefined),IC50,[10],> 20 µM (inactive)
CCN(CC)S(=O)(=O)c1cccc(-c2nnc(S)n2/N=C/c2ccc(OC(F)F)cc2)c1,IC50,[5],147 µM (active)
CN(C)c1ccc(NC(=O)c2ccc3nsnc3c2)cc1,IC50,[5],65.4 µM (active)
CSc1ccc(CCNC(=O)c2nn(C)c3c2CS(=O)(=O)c2ccccc2-3)cc1,EC50,[6],> 260 µM (inactive)
COc1ccc(NC(=O)CN2CCN(Cc3ccc4c(c3)OCO4)CC2)cc1OC,IC50,Protein skinhead-1,> 100 µM (inactive)
Cc1ccc(/C=N/NC(=O)c2cccc(S(=O)(=O)Nc3ccccc3Cl)c2)o1,EC50,[6],> 260 µM (inactive)
CCOC(=O)/C(C#N)=C/c1cn(CCC(=O)O)nc1-c1ccc(Cl)cc1,EC50,[6],> 260 µM (inactive)
Nc1cc(O)nc(SCC(=O)Nc2ccc(S(=O)(=O)N3CCOCC3)cc2)n1,IC50,Protein skinhead-1,> 100 µM (inactive)
same,AC50,Cytochrome P450 3A4,28.2 µM (inconclusive)
same,AC50,Cytochrome P450 2C9,20 µM (inconclusive)
Clc1ccc(CSc2ncn(-c3ccccc3)n2)cc1,IC50,Protein skinhead-1,10.3 µM (active)
CCC1CCCCN1CCCNC(=O)C1CCN(c2ncnc3c2nc2n3CCCCC2)CC1 (centres undefined),IC50,[10],> 20 µM (inactive)
O=C(c1ccccc1)c1ccc(C(=O)N2CCN(c3ccc(O)cc3)CC2)cc1,IC50,[5],34 µM (active)
NC(S)=NN=C1c2cc(S(=O)(=O)N3CCOCC3)ccc2-c2ccc(S(=O)(=O)N3CCOCC3)cc21,IC50,[3],> 66 µM (inactive)
same,IC50,[4],> 66 µM (inactive)
C#CCOCCOCCOCCNc1nc(N2CCN(C(=O)[C@H](CO)n3cc([C@@H](N)C(C)C)nn3)CC2)nc(N2CCN(C(=O)[C@H](CCCCN)n3cc([C@@H](N)[C@H](C)CC)nn3)CC2)n1,IC50,[10],> 20 µM (inactive)
COc1ccc(/C=C(\NC(=O)c2ccccc2)C(=O)N/N=C/c2sccc2C)cc1,EC50,[6],> 260 µM (inactive)
Cc1ccc2oc(C(=O)N3CCC(O)(c4cccc(C(F)(F)F)c4)CC3)c(C)c2c1,EC50,[6],54.9 µM (active)
Nc1nc(Cl)nc2ccc(Br)cc12,EC50,[11],5.71 µM (active)
same,IC50,[10],> 20 µM (inactive)
Cc1cccc(-n2c(N)cc(=O)nc2SCC(=O)Nc2cc(C)on2)c1,IC50,[3],> 66 µM (inactive)
same,IC50,[4],> 66 µM (inactive)
CCc1cc(/C(Cc2csc(C)n2)=N/O)c(O)cc1O,IC50,[5],28.3 µM (active)
O=C(c1cc(-c2ccccc2)on1)N1CCc2ccccc2C1,IC50,Protein skinhead-1,> 100 µM (inactive)
CCCNc1cc(S)nc(N)n1,IC50,[3],> 66 µM (inactive)
same,IC50,[4],> 66 µM (inactive)
c1ccc(CN2CCN(Cc3ccc4ccccc4c3)CC2)cc1,IC50,[5],123 µM (active)
COc1cc(-c2cc(C(=O)Nc3ccc(S(N)(=O)=O)cc3)c3ccccc3n2)cc(OC)c1OC,IC50,[10],> 20 µM (inactive)
COc1cc(/C=N/NC(=O)c2cc3ccccc3[nH]2)ccc1O,AC50,[12],0.393 µM (active)
same,IC50,[5],17.8 µM (active)
Clc1ccc(Nc2ccc(-n3ccnc3)nn2)cc1Cl,CC50,[13],> 40 µM (active)
same,IC50,Protein skinhead-1,> 100 µM (inactive)
